# Experimental data published in US20090215748A1, “FXR agonists for treating vitamin D associated diseases” (Wyeth, priority 2007, published 2009).
# Legend:
# Type in all cases: in vivo
# [1] = test system: CYP27B1; assay: CYP27B1 expression in wild (WT) mice, 7 day treatment (FIG. 1)
# [2] = test system: CYP27B1; assay: CYP27B1 expression in FXR deficient (FXR KO) mice, 7 day treatment (FIG. 1)
# [3] = test system: CYP27B1; assay: Gene profiling of kidneys isolated from KKAy mice treated with Compound A
# Procedure: To examine the role of FXR in the kidney, gene-profiling experiments were performed using kidneys isolated from KKAy mice treated with Compound A. Genes involved in vitamin D synthesis, calcium mobilization, amino acid metabolism, inflammation, oxidative phosphorylation, and nitric oxide production were regulated by Compound A treatment. […] The CYP27B1 gene, expressed in the proximal tubes of the kidney, encodes 25-hydroxyvitamin D3 1α-hydroxylase, which generates the active form of vitamin D, 1α,25-dihydroxyvitamin D3, from a proform of vitamin D, 25 hydroxyvitamin D3.
# [4] = test system: renin; assay: Renal renin gene expression in KKAy mice, 4 weeks treatment (FIG. 6); details: once a day for 4 weeks
# Text: Vitamin D and its receptor vitamin D receptor (VDR) may regulate the cardiovascular system. VDR deficient and CYP27B1 deficient mice have increased blood pressure and left ventricle hypertrophy.
# [5] = test system: KKAy mice; assay: Serum creatinine level in KKAy mice, 7 days oral dosing (FIG. 3); details: orally once a day for seven days, not statistically significant
# [6] = test system: KKAy mice; assay: Hepatic lipid metabolism and deposition in the KKAy model of diabetic nephropathy
# Text: The KKAy mice are diabetic mice characterized by hyperglycemia and insulin resistance and are renally impaired with nodular glomerulosclerosis, mesangial proliferation, and abuminuria that increases with age or with a high cholesterol diet. Abnormal lipid metabolism and renal lipid accumulation may contribute to diabetic nephropathy. Administration of FXR agonist, Compound A (isopropyl 3-(3,4-difluorobenzoyl)-1,1-dimethyl-1,2,3,6-tetrahydroazepino[4,5-b]indole-5-carboxylate) improves hepatic lipid metabolism and deposition in the KKAy model of diabetic nephropathy.
# [7] = test system: MMP-14; assay: MMP-14 gene expression in chow fed KKAy mice, 7 day treatment (FIG. 5)
# [8] = test system: OVX rats; assay: OVX-induced bone loss in OVX rats; details: 3 and 30 mg/kg, 6-10 weeks of treatment
# Text: OVX rats are rats subjected to bilateral ovariectomy, which results in development of osteopenia. Two studies have been conducted to evaluate the effect of one of the FXR agonists disclosed herein, isopropyl 3-(3,4-difluorobenzoyl)-1,1-dimethyl-1,2,3,6-tetrahydroazepino[4,5-b]-indole-5-carboxylate, in OVX rats. […] The exposure level of the compound in bone tissue of the rats was not studied and the EC50 of the compound in bone cells was not studied. Accordingly, the reason for the absence of an observable effect has not been determined.
# [9] = test system: CYP27B1; assay: CYP27B1 gene expression in chow fed KKAy mice, 7 day treatment (FIG. 4)
smiles,measurement,setting,value
"CC(C)OC(=O)C1=CN(C(=O)c2ccc(F)c(F)c2)CC(C)(C)c2c1[nH]c1ccccc21 [Compound A, isopropyl 3-(3,4-difluorobenzoyl)-1,1-dimethyl-1,2,3,6-tetrahydroazepino[4,5-b]indole-5-carboxylate]","expression of CYP27B1, induction",[1],15 fold
same,effect on the expression of CYP27B1,[2],No effect
same,CYP27B1 gene expression,[3],upregulated
same,renal renin gene expression,[4],significant reduction
same,reduction in serum creatinine levels,[5],20%
same,hepatic lipid metabolism and deposition,[6],improves
same,MMP-14 gene expression,[7],decreased
same,effect on preventing or restoring OVX-induced bone loss,[8],did not show any effect
same,CYP27B1 gene expression,[9],upregulated
